Experimental data: the supplement of paper PMC10307832

Legend:
Assay in all cases: relative viability (nuclei count vs DMSO), 5 days (fraction); higher = more cells survive
201T = test system: 201T
Summary of the method: (§1)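 The day after seeding in 1536-well plates, lung cancer cell lines were treated by pin tool with a single drug, or with a fixed anchor-drug dose together with five library-drug doses (not always all listed) in √10 steps. After 5 days, a combined fix-and-stain solution (final 0.05% Triton X-100, 1% formaldehyde, 1 ug/ml Hoechst) was added. Nuclei counted on 4× images gave relative viability as treated counts over vehicle counts, reported as the median of duplicate plates.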

BEN = test system: BEN
Summary of the method: as §1

EPLC-272H = test system: EPLC-272H
Summary of the method: as §1

HCC-15 = test system: HCC-15
Summary of the method: as §1

HCC-78 = test system: HCC-78
Summary of the method: as §1

LCLC-97TM1 = test system: LCLC-97TM1
Summary of the method: as §1

LU99A = test system: LU99A
Summary of the method: as §1

NCI-H1355 = test system: NCI-H1355
Summary of the method: as §1

NCI-H2009 = test system: NCI-H2009
Summary of the method: as §1

NCI-H2085 = test system: NCI-H2085
Summary of the method: as §1

NCI-H2126 = test system: NCI-H2126
Summary of the method: as §1

NCI-H2228 = test system: NCI-H2228
Summary of the method: as §1

NCI-H23 = test system: NCI-H23
Summary of the method: as §1

NCI-H2405 = test system: NCI-H2405
Summary of the method: as §1

NCI-H322M = test system: NCI-H322M
Summary of the method: as §1

NCI-H460 = test system: NCI-H460
Summary of the method: as §1

NCI-H647 = test system: NCI-H647
Summary of the method: as §1

NCI-H650 = test system: NCI-H650
Summary of the method: as §1

NCI-H661 = test system: NCI-H661
Summary of the method: as §1

NCI-H838 = test system: NCI-H838
Summary of the method: as §1

PC-14 = test system: PC-14
Summary of the method: as §1

Question: What does the source list for `CCNC(=O)c1noc(-c2cc(C(C)C)c(O)cc2O)c1-c1ccc(CN2CCOCC2)cc1` [Luminespib] + CC(C)C[C@H](NC(=O)[C@H](Cc1ccccc1)NC(=O)c1cnccn1)B(O)O [Bortezomib] (partner 0.002 µM)?
Answer: relative viability (201T; first compound 0.002 µM): 1.11; relative viability (201T; first compound 0.006325 µM): 1.07; relative viability (201T; first compound 0.02 µM): 0.937; relative viability (201T; first compound 0.06325 µM): 1.09; relative viability (201T; first compound 0.2 µM): 1.09; relative viability (BEN; first compound 0.002 µM): 0.914; relative viability (BEN; first compound 0.006325 µM): 0.542; relative viability (BEN; first compound 0.02 µM): 0.438; relative viability (BEN; first compound 0.06325 µM): 0.424; relative viability (BEN; first compound 0.2 µM): 0.239; relative viability (EPLC-272H; first compound 0.006325 µM): 0.83; relative viability (EPLC-272H; first compound 0.02 µM): 0.678; relative viability (EPLC-272H; first compound 0.06325 µM): 0.913; relative viability (EPLC-272H; first compound 0.2 µM): 0.293; relative viability (HCC-15; first compound 0.002 µM): 1.03; relative viability (HCC-15; first compound 0.006325 µM): 0.906; relative viability (HCC-15; first compound 0.02 µM): 1.11; relative viability (HCC-15; first compound 0.06325 µM): 0.517; relative viability (HCC-15; first compound 0.2 µM): 0.152; relative viability (HCC-78; first compound 0.002 µM): 0.441; relative viability (HCC-78; first compound 0.006325 µM): 0.527; relative viability (HCC-78; first compound 0.06325 µM): 0.745; relative viability (HCC-78; first compound 0.2 µM): 0.262; relative viability (LCLC-97TM1; first compound 0.002 µM): 0.876; relative viability (LCLC-97TM1; first compound 0.006325 µM): 0.635; relative viability (LCLC-97TM1; first compound 0.02 µM): 0.638; relative viability (LCLC-97TM1; first compound 0.06325 µM): 0.0526; relative viability (LCLC-97TM1; first compound 0.2 µM): 0.0579; relative viability (LU99A; first compound 0.002 µM): 1.3; relative viability (LU99A; first compound 0.006325 µM): 1.11; relative viability (LU99A; first compound 0.02 µM): 0.538; relative viability (LU99A; first compound 0.06325 µM): 0.105; relative viability (LU99A; first compound 0.2 µM): 0.117; relative viability (NCI-H1355; first compound 0.002 µM): 1.14; relative viability (NCI-H1355; first compound 0.006325 µM): 1.12; relative viability (NCI-H1355; first compound 0.02 µM): 0.571; relative viability (NCI-H1355; first compound 0.06325 µM): 1; relative viability (NCI-H1355; first compound 0.2 µM): 0.182; relative viability (NCI-H2009; first compound 0.002 µM): 1.16; relative viability (NCI-H2009; first compound 0.006325 µM): 0.841; relative viability (NCI-H2009; first compound 0.02 µM): 0.956; relative viability (NCI-H2009; first compound 0.06325 µM): 0.0583; relative viability (NCI-H2009; first compound 0.2 µM): 0.0609; relative viability (NCI-H2085; first compound 0.002 µM): 0.979; relative viability (NCI-H2085; first compound 0.006325 µM): 0.94; relative viability (NCI-H2085; first compound 0.02 µM): 0.818; relative viability (NCI-H2085; first compound 0.06325 µM): 0.509; relative viability (NCI-H2085; first compound 0.2 µM): 0.344; relative viability (NCI-H2126; first compound 0.002 µM): 1.09; relative viability (NCI-H2126; first compound 0.006325 µM): 1.03; relative viability (NCI-H2126; first compound 0.02 µM): 0.79; relative viability (NCI-H2126; first compound 0.06325 µM): 1.07; relative viability (NCI-H2126; first compound 0.2 µM): 0.823; relative viability (NCI-H2228; first compound 0.002 µM): 0.985; relative viability (NCI-H2228; first compound 0.006325 µM): 0.952; relative viability (NCI-H2228; first compound 0.02 µM): 0.166; relative viability (NCI-H2228; first compound 0.06325 µM): 0.196; relative viability (NCI-H2228; first compound 0.2 µM): 0.184; relative viability (NCI-H23; first compound 0.002 µM): 1.23; relative viability (NCI-H23; first compound 0.006325 µM): 1.05; relative viability (NCI-H23; first compound 0.02 µM): 0.733; relative viability (NCI-H23; first compound 0.06325 µM): 0.119; relative viability (NCI-H23; first compound 0.2 µM): 0.117; relative viability (NCI-H2405; first compound 0.002 µM): 0.987; relative viability (NCI-H2405; first compound 0.006325 µM): 0.533; relative viability (NCI-H2405; first compound 0.02 µM): 0.835; relative viability (NCI-H2405; first compound 0.06325 µM): 0.9; relative viability (NCI-H2405; first compound 0.2 µM): 0.358; relative viability (NCI-H322M; first compound 0.002 µM): 1.21; relative viability (NCI-H322M; first compound 0.006325 µM): 1.27; relative viability (NCI-H322M; first compound 0.02 µM): 1.05; relative viability (NCI-H322M; first compound 0.06325 µM): 1.32; relative viability (NCI-H322M; first compound 0.2 µM): 0.814; relative viability (NCI-H460; first compound 0.002 µM): 1.09; relative viability (NCI-H460; first compound 0.006325 µM): 1.14; relative viability (NCI-H460; first compound 0.02 µM): 0.0229; relative viability (NCI-H460; first compound 0.06325 µM): 0.011; relative viability (NCI-H460; first compound 0.2 µM): 0.0138; relative viability (NCI-H647; first compound 0.002 µM): 0.999; relative viability (NCI-H647; first compound 0.006325 µM): 0.987; relative viability (NCI-H647; first compound 0.02 µM): 0.29; relative viability (NCI-H647; first compound 0.06325 µM): 0.0859; relative viability (NCI-H647; first compound 0.2 µM): 0.0972; relative viability (NCI-H650; first compound 0.002 µM): 0.737; relative viability (NCI-H650; first compound 0.006325 µM): 0.716; relative viability (NCI-H650; first compound 0.02 µM): 0.651; relative viability (NCI-H650; first compound 0.06325 µM): 0.124; relative viability (NCI-H650; first compound 0.2 µM): 0.103; relative viability (NCI-H661; first compound 0.002 µM): 0.886; relative viability (NCI-H661; first compound 0.006325 µM): 0.773; relative viability (NCI-H661; first compound 0.02 µM): 0.685; relative viability (NCI-H661; first compound 0.06325 µM): 0.527; relative viability (NCI-H661; first compound 0.2 µM): 0.182; relative viability (NCI-H838; first compound 0.002 µM): 0.877; relative viability (NCI-H838; first compound 0.006325 µM): 0.723; relative viability (NCI-H838; first compound 0.02 µM): 0.389; relative viability (NCI-H838; first compound 0.06325 µM): 0.0924; relative viability (NCI-H838; first compound 0.2 µM): 0.0934; relative viability (PC-14; first compound 0.002 µM): 0.956; relative viability (PC-14; first compound 0.006325 µM): 0.788; relative viability (PC-14; first compound 0.02 µM): 0.988; relative viability (PC-14; first compound 0.06325 µM): 0.314; relative viability (PC-14; first compound 0.2 µM): 0.0725
